Data: patent US20260166170A1, “ANTIBODY DRUG CONJUGATE COMPRISING NMT INHIBITOR AND ITS USE” (MyricX Pharma Limited, priority 2022, published 2026)

Legend:
[1] = tested on: BT474 breast cancer cells; test: Orthotopic breast cancer xenograft model; format: in vivo, NOD/SCID mice; settings: trastuzumab or ADC Example 1 2.5 or 5 mg/kg; NMT inhibitor 1 2 mg/kg
Protocol: During the study, body weights were measured three times weekly for all animals. Animals were given Diet Gel for the entire duration on the study.

[2] = tested on: LNCaP tumours; test: LNCaP prostate cancer xenograft model; format: in vivo, male NOD SCID mice; settings: IV, Q7D (x3); for Tumour growth inhibition (TGI, %): day 28
Description: Adjusted p value calculated by Kruskal-Wallis test and Dunn's multiple comparisons relative to vehicle control. […] C is the mean tumour volume of the control Group 1 mice on the measurement day and C0 is the mean tumour volume on Study Day 0.

[3] = tested on: VCaP human prostate cancer xenograft; test: VCaP prostate cancer xenograft model; format: in vivo, non-castrated male CB17/SCID mice
Protocol: The objective of this study was to evaluate preclinically the in vivo therapeutic efficacy of ADC Example 4 in the treatment of subcutaneous VCaP human prostate cancer xenograft model in non-castrated male CB17/SCID mice.
In this study, 144 mice were inoculated subcutaneously in the right front flank region with 1×10^7 viable VCaP tumour cells resuspended in 0.1 mL of PBS mixed with Matrigel (1:1) for tumour development on Study Day−20. 80 mice were assigned to 8 treatment groups when tumour volumes averaged ˜162.16 mm^3 on Study Day 0. Dosing commenced the following day and all animals were dosed intravenously with ADC Example 4, ifinatamab-deruxtecan (ifinatamab-Dxd) or unconjugated ifinatamab. All mice received two doses of test agent, on Study Day 1 and Study Day 8. The study was terminated on Study Day 30.

[4] = tested on: JIMT-1 human breast xenograft; test: JIMT-1 breast cancer xenograft model; format: in vivo
Description: The study was terminated on the Study Day 60.

Molecule | LNCaP tumour volume compared to vehicle control ([2]; 5 mg/kg) | LNCaP tumour volume compared to vehicle control ([2]; 10 mg/kg) | Tumour growth inhibition (TGI, %) ([2]; 10 mg/kg) [%] | tumour volumes compared to vehicle alone ([3]; 2.5 mg/kg) | tumour volumes compared to vehicle alone ([3]; 5 mg/kg) | tumour volumes compared to vehicle alone ([4]; 2.5 mg/kg) | tumour volumes compared to vehicle alone ([4]; 5 mg/kg) | also measured
CNCc1cnc2ccc(-c3ccc(F)c(F)c3OCCc3c(C(O)C(C)(C)C)nn(C)c3C)cn12 (centres unmarked) [NMT inhibitor 1, 1-(4-(2-(2,3-difluoro-6-(3-((methylamino)methyl)imidazo[1,2-a]pyridin-6-yl)phenoxy)ethyl)-1,5-dimethyl-1H-pyrazol-3-yl)-2,2-dimethylpropan-1-ol] | – | – | – | – | – | – | – | body weights of mice compared to vehicle control [1]: decreased significantly
ifinatamab | no significant effect | no significant effect | 13.0 | no significant difference | no significant difference | – | – | –
sacituzumab | – | – | – | – | – | no significant difference | significant decrease | –
sacituzumab govitecan [reference compound] | – | – | – | – | – | significant decrease | significant decrease | –
ifinatamab-DXd: ifinatamab-deruxtecan, comparator ADC (conjugate, chains of the INN, looked up, deruxtecan (DXd) payload, ifinatamab-deruxtecan, comparator ADC) VH: QVQLVQSGAEVKKPGSSVKVSCKASGYTFTNYVMHWVRQAPGQGLEWMGYINPYNDDVKYNEKFKGRVTITADESTSTAYMELSSLRSEDTAVYYCARWGYYGSPLYYFDYWGQGTLVTVSS VL: EIVLTQSPATLSLSPGERATLSCRASSRLIYMHWYQQKPGQAPRPLIYATSNLASGIPARFSGSGSGTDFTLTISSLEPEDFAVYYCQQWNSNPPTFGQGTKVEIK | slowed the growth of LNCaP tumours to a lesser extent | significantly reduced the mean volume of LNCaP tumours | 75.0 | no significant difference | significantly higher tumour volume | – | – | Day 28 tumour volume (mm^3, mean ± SEM) ([2]; 5 mg/kg): 364.6 ± 51.7 mm^3; Tumour growth inhibition (TGI, %) ([2]; 5 mg/kg): 58.8%; Day 28 tumour volume (mm^3, mean ± SEM) ([2]; 10 mg/kg): 259.5 ± 50.3 mm^3; ΔTGI (Study Day 17) ([3]; 2.5 mg/kg IV QW × 2 weeks): 5.24%; ΔTGI (Study Day 17) ([3]; 5 mg/kg IV QW × 2 weeks): 2.86%
